Some test systems named below: NCI/ADR-RES ovarian; NCI-H460 lung; PC-3 prostate; SN12C renal; HCT-116 colon; CCRF-CEM leukemia; HCC-2998 colon; MOLT-4 leukemia; IGROV1 ovarian; SF-539 CNS; M14 melanoma; OVCAR-5 ovarian; U251 CNS; TK-10 renal; A549 NSCLC; CAKI-1 renal; A498 renal; UO-31 renal; SK-MEL-28 melanoma.
What all share (test): NCI-60 cell line screen, 48 h

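A five-concentration, 48-hour dose response in 96-well plates underlies each endpoint, interpolated linearly between surrounding concentrations. Definition used: TGI = concentration required for complete inhibition of growth.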

Regarding `CC(=O)O[C@H]1C(=O)[C@@]2(C)C(C(OC(=O)c3ccccc3)[C@]3(O)CC(OC(=O)C(O)C(NC(=O)c4ccccc4)c4cccc(Cl)c4)C(C)=C1C3(C)C)[C@]1(OC(C)=O)CO[C@@H]1C[C@@H]2O` (some centres not stated), the TGI with NCI/ADR-RES ovarian, in the experiment on NCI-H460 lung, in the experiment on PC-3 prostate, in the experiment on SN12C renal, with HCT-116 colon and in the experiment on CCRF-CEM leukemia was more than 10 µM each time. Moreover, the TGI with HCC-2998 colon was more than 10 µM; in the experiment with MOLT-4 leukemia, more than 10 µM; with IGROV1 ovarian, more than 10 µM; in the experiment with SF-539 CNS it was 9.73 µM; with M14 melanoma it was more than 10 µM; in the experiment on OVCAR-5 ovarian, more than 10 µM. The TGI in the experiment with U251 CNS, in the experiment on TK-10 renal, in the experiment with A549 NSCLC and in the experiment on CAKI-1 renal was more than 10 µM in each case.
As for `c1ccc2c3nnc(c2c1)SCCCSc1nnc(c2ccccc12)SCCCS3`, the TGI with NCI/ADR-RES ovarian is 86.4 µM; in the experiment on A498 renal it was more than 100 µM; with NCI-H460 lung, more than 100 µM; with PC-3 prostate it was more than 100 µM; in the experiment on SN12C renal it was more than 100 µM; in the experiment with HCT-116 colon it was more than 100 µM. The TGI in the experiment with CCRF-CEM leukemia is more than 100 µM; with HCC-2998 colon, more than 100 µM; with MOLT-4 leukemia, more than 100 µM; with IGROV1 ovarian, more than 100 µM; in the experiment on UO-31 renal, more than 100 µM; in the experiment on SF-539 CNS it was 28.3 µM. Besides, the TGI with SK-MEL-28 melanoma, in the experiment on M14 melanoma, in the experiment on OVCAR-5 ovarian, with U251 CNS, with TK-10 renal and in the experiment with A549 NSCLC was more than 100 µM throughout.
Consider `C[N+]1(C)C[C@@H](O)C[C@@H]1C(=O)[O-]`, for which the TGI in the experiment on A498 renal, in the experiment with NCI-H460 lung, with SN12C renal, in the experiment with HCT-116 colon, in the experiment with CCRF-CEM leukemia and with HCC-2998 colon was more than 100 µM in each case. Also, the TGI in the experiment with MOLT-4 leukemia, in the experiment on IGROV1 ovarian, with UO-31 renal, in the experiment on SF-539 CNS, in the experiment with SK-MEL-28 melanoma and in the experiment on M14 melanoma was more than 100 µM throughout. Also, the TGI with U251 CNS, in the experiment with TK-10 renal and with A549 NSCLC was more than 100 µM each time.
Take `Cc1c/c(=N/NC(=O)c2ccncc2)n2nc(N)sc2n1`: the TGI in the experiment with NCI/ADR-RES ovarian, with A498 renal, with NCI-H460 lung, in the experiment on PC-3 prostate, in the experiment with SN12C renal and in the experiment on HCT-116 colon was more than 100 µM each time. The TGI in the experiment on CCRF-CEM leukemia, with HCC-2998 colon, with MOLT-4 leukemia, in the experiment with IGROV1 ovarian, with UO-31 renal and with SF-539 CNS was more than 100 µM in each case. For the same compound, the TGI in the experiment on SK-MEL-28 melanoma, in the experiment with M14 melanoma, in the experiment with OVCAR-5 ovarian, in the experiment with U251 CNS, in the experiment with A549 NSCLC and in the experiment on CAKI-1 renal was more than 100 µM each time.
As for `CSc1nc2nc(C(O)C(O)C(O)CO)cnc2c(=O)[nH]1` (configuration not stated), the TGI with A498 renal, in the experiment with NCI-H460 lung, with SN12C renal, in the experiment with HCT-116 colon, in the experiment with CCRF-CEM leukemia and in the experiment with HCC-2998 colon was more than 100 µM each time. For the same compound, the TGI in the experiment on MOLT-4 leukemia, with IGROV1 ovarian, in the experiment with UO-31 renal, with SF-539 CNS, in the experiment on SK-MEL-28 melanoma and in the experiment with M14 melanoma was more than 100 µM in each case. In addition, the TGI with OVCAR-5 ovarian, in the experiment on U251 CNS, in the experiment with TK-10 renal, with A549 NSCLC and in the experiment with CAKI-1 renal was more than 100 µM each time.
On to `CCOC(=O)C1=C(c2ccccc2)N(C(C)=O)Cc2ccccc21`, for which the TGI in the experiment with NCI-H460 lung was 41.3 µM; in the experiment with SN12C renal, 77.1 µM; in the experiment with HCT-116 colon, 30.2 µM; with CCRF-CEM leukemia it was 78.7 µM; in the experiment with HCC-2998 colon, more than 100 µM; with MOLT-4 leukemia, 34.8 µM. The TGI with IGROV1 ovarian was more than 100 µM; in the experiment with UO-31 renal it was more than 100 µM; in the experiment on SF-539 CNS, 30.9 µM; with SK-MEL-28 melanoma, 36.6 µM; in the experiment with M14 melanoma, 35 µM; with OVCAR-5 ovarian, more than 100 µM. Further, the TGI in the experiment with U251 CNS was 36.8 µM; with TK-10 renal it was more than 100 µM; with A549 NSCLC, 93.8 µM.
With `CCSc1nnc(-c2ccccc2)nc1Cc1ccc(OC)cc1`, the TGI in the experiment on A498 renal, in the experiment on NCI-H460 lung, with SN12C renal, in the experiment on HCT-116 colon, with CCRF-CEM leukemia and in the experiment with HCC-2998 colon was more than 100 µM each time. The TGI in the experiment with MOLT-4 leukemia, in the experiment on IGROV1 ovarian, in the experiment with UO-31 renal, in the experiment with SF-539 CNS, with SK-MEL-28 melanoma and with M14 melanoma was more than 100 µM in each case. Also, the TGI in the experiment on U251 CNS, with TK-10 renal and in the experiment on A549 NSCLC was more than 100 µM each time.
For `CCCCCC1=C2C(c3ccc(OC)cc3)=C(N)C(c3ccc(OC)cc3)=C3NC(=O)C(C=C1)C32` (configuration not stated), the TGI with NCI/ADR-RES ovarian, in the experiment on A498 renal, in the experiment with NCI-H460 lung, in the experiment with PC-3 prostate, in the experiment with SN12C renal and with HCT-116 colon was more than 100 µM in each case. Also, the TGI in the experiment on CCRF-CEM leukemia, with HCC-2998 colon, in the experiment on MOLT-4 leukemia, with IGROV1 ovarian, in the experiment on UO-31 renal and with SK-MEL-28 melanoma was more than 100 µM throughout. The TGI in the experiment with M14 melanoma, with OVCAR-5 ovarian, in the experiment on U251 CNS, in the experiment on TK-10 renal, in the experiment on A549 NSCLC and in the experiment on CAKI-1 renal was more than 100 µM each time.

The values above are taken from PubChem BioAssay (NCI).
